This note sets out measurements from US20240199571A1, “THIOPHENE COMPOUND AND APPLICATION THEREOF” (MEDSHINE DISCOVERY INC., priority 2021, published 2024).

The target of one data set is human LSD1 (Homo sapiens (Human), UniProt O60341). In words: Experiment 1B: in vitro LSD1 enzyme activity, enzyme-coupled fluorescence (HRP/Amplex Red), H3(1-21)K4me2 peptide 10 μM (Reaction Biology). It counts as biochemical. As to conditions: histone H3(1-21)K4me2 peptide 10 μM. The procedure:
Experiment 1B: Evaluation of Enzyme Activity
Testing unit: Reaction Biology Corp., USA.
The purpose of the assay was to test the in vitro inhibitory activity of the compounds against LSD1. The enzyme used in the assay was human LSD1, and the standard substrate was histone H3(1-21)K4me2 peptide (10 μM). The activity of the compounds was determined by the enzyme-coupling fluorescent method by the combined detection of H2O2 generated after the reaction of LSD1 by horseradish peroxidase (HRP) and the fluorescent reagent Amplex Red. Starting from 10 μM, the compounds were 3-fold diluted to detect the IC50 values of the compounds at 10 concentrations. The enzyme and substrate were incubated for 30 minutes before the compound was added to the substrate to start the reaction. Fluorescence detector: EnVision, excitation wavelength: Ex/Em=535/590 nM.

The subject of the next data set is NCI-H1417 cells. In words: Experiment 2: inhibition of NCI-H1417 cell proliferation (CellTiter-Glo, 10 days). In kind it is cell-based. As to conditions: Homo sapiens, 240 h, 10 days incubation. The procedure: Experiment 2: Evaluation of Inhibitory Activity on NCI-H1417 Cell Proliferation
Experimental purpose: To test the inhibitory activity of test compounds on NCI-H1417 cell proliferation.
Experimental materials: RPMI 1640 medium, fetal bovine serum, Promega CellTiter-Glo reagent. The NCI-H1417 cell line was purchased from ATCC. Envision multilabel plate reader (PerkinElmer).
Experimental method: The compounds were dissolved to 10 mM and 5-fold diluted with DMSO in the compound plates, starting with a concentration of 2 mM. 3-fold serial dilution was performed with Bravo to 10 concentrations. Then 250 nL of the compound solution was transferred to the upper and lower double duplicate wells of a blank 384 cell plate with Echo. To each well containing the transferred 250 nL of DMSO/compound was added a cell suspension of 1000 cells/50 μL per well, and the compound was diluted 200-fold, i.e., resulting in an initial working concentration of 10 μM. The cell plate was incubated in a carbon dioxide incubator for 10 days. To the cell plate was added 25 μL of Promega CellTiter-Glo reagent per well and the mixture was shaken for 10 minutes at room temperature to stabilize the luminescence signal. Readings were performed on a PerkinElmer Envision multilabel plate reader.
Data analysis: Raw data were converted into inhibition rate using the formula: (Max−Ratio)/(Max−Min)*100%. The IC50 values could then be derived from four-parameter curve fitting. (derived from 205 mode in XLFIT5, iDBS)
The compounds were tested for inhibitory activity of compounds on NCI-H1417 cell proliferation, and the results are shown in Table 3.

A short description of data set [1]: Experiment 3: pharmacokinetic evaluation in CD-1 mice (IV and oral). In kind it is in vivo. As to conditions: mouse, plasma, male CD-1 mice. The procedure: Experiment 3: Pharmacokinetic Evaluation of Compounds
Experimental purpose: To test the pharmacokinetics of compounds in CD-1 mice in vivo
CD-1 mice (male/female, 7 to 9 weeks old, Shanghai SLAC)
The pharmacokinetic characteristics of the compounds in rodents after intravenous injection and oral administration were tested according to the standard protocol. In the experiment, the candidate compound was formulated into clear solutions, and a single intravenous injection and oral administration were given to mice. The vehicle for intravenous injection and oral administration was a mixed vehicle composed of 10% dimethyl sulfoxide and 90% hydroxypropyl β-cyclodextrin with a content of 10%. In this project, four male/female CD-1 mice were used. Two mice were injected intravenously at a dose of 1 mg/kg, and plasma samples were collected at 0.083, 0.25, 0.5, 1, 2, 4, 8, and 24 hours after administration; the other two were administered orally by gavage at a dose of 2 mg/kg, and plasma samples were collected at 0.25, 0.5, 1, 2, 4, 8, and 24 hours after administration. The samples were centrifuged at 3200 g for 10 minutes at 4° C., and plasma samples were obtained by separating the supernatant. A methanol solution containing internal standard with 20 times the volume of the sample was added thereto to precipitate the protein, and the mixture was centrifuged at 12000 g for 15 minutes at 4° C. 50 μL of the supernatant was taken and transferred to a 96-well plate and centrifuged again. The supernatant was taken for sampling. The plasma concentration was quantitatively analyzed using LC-MS/MS analysis method, and pharmacokinetic parameters, such as peak concentration (Cmax), clearance rate (CL), half-life (T1/2), volume of distribution at steady state (Vdss), area under drug-time curve (AUC0-last), bioavailability (F).

SMILES strings stand for the structures. Where a name gives a salt, the structure may show the parent alone.

For `COC1CC(n2cc3cc(-c4sc(C(=O)N5CCC[C@@H](N)C5)cc4-c4ccc(C#N)c(F)c4)ccc3n2)C1` (stereo partly shown) [Hydrochloride of compound 80], the IC50 (commonly the concentration needed to halve the response being measured) at human LSD1 was 20.2 nM; with NCI-H1417 cells it was 16.1 nM. In data set [1] (IV 1 mg/kg, read-out: Clearance rate CL), the clearance was determined as 33.7 mL/min/kg. The half-life in data set [1] (IV 1 mg/kg, read-out: Half life T1/2 (IV, h) (converted)) is 1.93 h. In data set [1] (IV 1 mg/kg, read-out: Volume of distribution at steady state Vdss), the Vd worked out at 4.89 L/kg. The bioavailability – broadly, the share of a dose that reaches the circulation, judged against a reference dose that is usually intravenous – in data set [1] (PO 2 mg/kg vs IV 1 mg/kg, read-out: Bioavailability F (%)) is 31.9%. Also, in data set [1] (PO 2 mg/kg, read-out: Area under drug-time curve AUC0-last PO), the AUC(0-t) was found to be 0.576 µM·h. In addition, the Cmax in data set [1] (single dose, oral 2 mg/kg, read-out: Peak concentration Cmax) amounted to 109 nM.

`COc1ccc(-c2sc(C(=O)N3CCCN(CC#N)CC3)cc2-c2ccc(C#N)c(F)c2)cc1F` [Compound 40]: the figures for the IC50 against human LSD1 and in the data set on NCI-H1417 cells were 95.6 nM and 18.7 nM, respectively.

Take `CC(C)S(=O)(=O)c1ccc(-c2sc(C(=O)N3CCC[C@@H](N)C3)cc2-c2ccc(C#N)c(F)c2)cc1` [Hydrochloride of compound 47]: the values for the IC50 against human LSD1 and in the data set on NCI-H1417 cells were 48.8 nM and 10.2 nM, respectively.

`Cn1c(=O)oc2ccc(-c3sc(C(=O)N4CCC[C@@H](N)C4)cc3-c3ccc(C#N)c(F)c3)cc21` [Hydrochloride of compound 34]: the figures for the IC50 against human LSD1 and in the data set on NCI-H1417 cells were 36.5 nM and 9.92 nM, respectively.

For `N#Cc1ccc(-c2cc(C(=O)N3CCC[C@@H](N)C3)sc2-c2ccn3ccnc3c2)cc1F` [Compound 84], the half-maximal inhibitory concentration (IC50) was determined as 13.2 nM against human LSD1 and 25.9 nM in the data set on NCI-H1417 cells.

As for `N#Cc1ccc(-c2cc(C(=O)N3CCC[C@@H](N)C3)sc2-c2ccc3nn(CC4(O)CCC4)cc3c2)cc1F` [Hydrochloride of compound 79], the IC50 was found to be 13.6 nM at human LSD1 and 3.32 nM with NCI-H1417 cells.

Take `COc1ccc(-c2sc(C(=O)N3CCCC(N(C)C)C3)cc2-c2ccc(C#N)c(F)c2)cc1F` (stereo not shown) [Hydrochloride of compound 26]: the IC50 was 19.6 nM at human LSD1 and 6.87 nM with NCI-H1417 cells.

As for `CC(C)(CO)n1nnc2cc(-c3sc(C(=O)N4CCCNCC4)cc3-c3ccc(C#N)c(F)c3)c(F)c(F)c21` [Hydrochloride of compound 103], the half-inhibitory concentration (IC50) against human LSD1 came to 21.6 nM; in the data set with NCI-H1417 cells it was 13.7 nM.

In the case of `CN1Cc2ccc(-c3sc(C(=O)N4CCC[C@@H](N)C4)cc3-c3ccc(C#N)c(F)c3)cc2C1=O` [Hydrochloride of compound 35], the half-inhibitory concentration (IC50) at human LSD1 was 24.6 nM; with NCI-H1417 cells, 8.84 nM.

On to `COc1ccc(-c2sc(C(=O)N3CCC[C@H](N)C3)cc2-c2ccc(C#N)c(F)c2)cc1F` [Hydrochloride of compound 18], for which the results for the IC50 against human LSD1 and with NCI-H1417 cells were 6.6 nM and 18.2 nM, respectively.

With `COc1ccc(-c2sc(C(=O)N3CCC[C@@H](N)C3)cc2-c2ccc(C#N)c(F)c2)c(F)c1` [Hydrochloride of compound 21], the values for the IC50 at human LSD1 and in the data set with NCI-H1417 cells were 19.4 nM and 6.83 nM, respectively.

Take `N#Cc1ccc(-c2cc(C(=O)N3CCC[C@@H](N)C3)sc2-c2ccc3c(c2)OCO3)cc1F` [Hydrochloride of compound 37]: the concentration for half-maximal inhibition (IC50) against human LSD1 was determined as 1.73 nM; in the data set with NCI-H1417 cells, 0.93 nM.

As for `N#Cc1ccc(-c2cc(C(=O)N3CCC[C@@H](N)C3)sc2-c2ccc(N3CCC(O)C3)cc2)cc1F` (stereo partly shown) [Hydrochloride of compound 85], the IC50 was 14.2 nM against human LSD1 and 2.32 nM in the data set on NCI-H1417 cells.

On to `CC(C)(O)Cn1ncc2cc(-c3sc(C(=O)N4CCC[C@@H](N)C4)cc3-c3ccc(C#N)c(F)c3)ccc21` [Compound 57], for which the figures for the half-maximal inhibitory concentration (IC50) against human LSD1 and in the data set on NCI-H1417 cells were 10.4 nM and 1.53 nM, respectively.

On to `COc1ccc(-c2sc(C(=O)N3CCNC(C)CC3)cc2-c2ccc(C#N)c(F)c2)cc1F` (stereo not shown) [Hydrochloride of compound 29], for which the IC50 against human LSD1 came out at 29.7 nM; with NCI-H1417 cells it was 17.2 nM.

On to `N#Cc1ccc(-c2cc(C(=O)N3CCC[C@@H](N)C3)sc2-c2ccc3nn(C4CCOC4)cc3c2)cc1F` (stereo partly shown) [Hydrochloride of compound 72], for which the figures for the IC50 on human LSD1 and with NCI-H1417 cells were 8.56 nM and 4.47 nM, respectively.

Turning to `COc1ccc(-c2sc(C(=O)N3CCC(N(C)C)C3)cc2-c2ccc(C#N)c(F)c2)cc1F` (stereo not shown) [Hydrochloride of compound 24], the IC50 at human LSD1 worked out at 70.9 nM; with NCI-H1417 cells, 30.6 nM.

On to `CC(C)(O)Cn1cc2cc(-c3sc(C(=O)N4CCC[C@@H](N)C4)cc3-c3ccc(C#N)c(F)c3)ccc2n1` [Compound 58], for which the IC50 against human LSD1 came to 20.4 nM; in the data set with NCI-H1417 cells, 3.56 nM.

As for `N#Cc1ccc(-c2cc(C(=O)N3CCC[C@@H](N)C3)sc2-c2cc3nnn(CC4(O)CCC4)c3c(F)c2F)cc1F` [Hydrochloride of compound 92], the half-inhibitory concentration (IC50) on human LSD1 is 9.81 nM; in the data set on NCI-H1417 cells it was 0.43 nM.

With `N#Cc1ccc(-c2cc(C(=O)N3CCCNCC3)sc2-c2cc3nnn(CC4(O)CCC4)c3c(F)c2F)cc1F` [Hydrochloride of compound 100], the results for the IC50 against human LSD1 and in the data set with NCI-H1417 cells were 14.1 nM and 0.37 nM, respectively.

In the case of `N#Cc1ccc(-c2cc(C(=O)N3CCCNCC3)sc2-c2ccc(N3CC[C@@H](O)C3)cc2)cc1F` [Hydrochloride of compound 117], the concentration for half-maximal inhibition (IC50) against human LSD1 came to 19 nM; in the data set with NCI-H1417 cells, 40.2 nM.

For `Cn1nnc2cc(-c3sc(C(=O)N4C5CCC4C(N)C5)cc3-c3ccc(C#N)c(F)c3)ccc21` (stereo not shown) [Compound 14], the IC50 against human LSD1 came to 5.37 nM; in the data set with NCI-H1417 cells, 0.54 nM.

Turning to `CC(C)(CO)n1cc2cc(-c3sc(C(=O)N4CCCNCC4)cc3-c3ccc(C#N)c(F)c3)ccc2n1` [Hydrochloride of compound 102], the values for the IC50 on human LSD1 and with NCI-H1417 cells were 56.9 nM and 31.4 nM, respectively.

For the compound `CC(C)(O)c1ccc(-c2sc(C(=O)N3CCC[C@@H](N)C3)cc2-c2ccc(C#N)c(F)c2)cc1` [Compound 50], the IC50 on human LSD1 was found to be 28.3 nM; with NCI-H1417 cells, 9.19 nM.

Consider `CC(C)(O)Cn1ncc2cc(-c3sc(C(=O)N4CCC[C@@H](N)C4)cc3-c3ccc(C#N)c(F)c3)cnc21` [Compound 60], for which the IC50 amounted to 18.4 nM at human LSD1 and 2.36 nM in the data set with NCI-H1417 cells.

Regarding `N#Cc1ccc(-c2cc(C(=O)N3CCC[C@@H](N)C3)sc2-c2ccc(N3CC[C@H](O)C3)c(F)c2)cc1F` [Hydrochloride of compound 96], the IC50 at human LSD1 turned out to be 20.6 nM; in the data set with NCI-H1417 cells, 4.79 nM.

As for `N#Cc1ccc(-c2cc(C(=O)N3CCC[C@@H](N)C3)sc2-c2ccc3nn(C4CCOCC4)cc3c2)cc1F` [Hydrochloride of compound 64], the IC50 against human LSD1 amounted to 29.6 nM; with NCI-H1417 cells it was 16.2 nM.

With `N#Cc1ccc(-c2cc(C(=O)N3CCC[C@@H](N)C3)sc2-c2ccc(N3CC[C@@H](O)C3)cc2)cc1F` [Hydrochloride of compound 110], the IC50 against human LSD1 is 9.84 nM; in the data set with NCI-H1417 cells it was 3.47 nM.

Regarding `CN[C@@H]1CCCN(C(=O)c2cc(-c3ccc(C#N)c(F)c3)c(-c3ccc4nn(C(C)(C)CO)cc4c3)s2)C1` [Hydrochloride of compound 104], the IC50 at human LSD1 turned out to be 16.6 nM; with NCI-H1417 cells, 4.75 nM.
